Test results reported in the kinase profiling compilation of Christmann-Franck et al. (2016).

What was measured:
Assay in all cases: radiometric filter-binding kinase assay, Kinase HotSpot
Details in all cases: compound 0.5 µM; ATP 10 µM
ERBB2 (human) = ERBB2 (human) (UniProt P04626)
MAP3K2 (human) = MAP3K2 (human) (UniProt Q9Y2U5)
MST4 (human) = MST4 (human) (UniProt Q9P289)
TYRO3 (human) = TYRO3 (human) (UniProt Q06418)
TTK (human) = TTK (human) (UniProt P33981)
YES1 (human) = YES1 (human) (UniProt P07947)
HIPK4 (human) = HIPK4 (human) (UniProt Q8NE63)
Chain of HIPK4 (human) (Q8NE63 whole entry, looked up): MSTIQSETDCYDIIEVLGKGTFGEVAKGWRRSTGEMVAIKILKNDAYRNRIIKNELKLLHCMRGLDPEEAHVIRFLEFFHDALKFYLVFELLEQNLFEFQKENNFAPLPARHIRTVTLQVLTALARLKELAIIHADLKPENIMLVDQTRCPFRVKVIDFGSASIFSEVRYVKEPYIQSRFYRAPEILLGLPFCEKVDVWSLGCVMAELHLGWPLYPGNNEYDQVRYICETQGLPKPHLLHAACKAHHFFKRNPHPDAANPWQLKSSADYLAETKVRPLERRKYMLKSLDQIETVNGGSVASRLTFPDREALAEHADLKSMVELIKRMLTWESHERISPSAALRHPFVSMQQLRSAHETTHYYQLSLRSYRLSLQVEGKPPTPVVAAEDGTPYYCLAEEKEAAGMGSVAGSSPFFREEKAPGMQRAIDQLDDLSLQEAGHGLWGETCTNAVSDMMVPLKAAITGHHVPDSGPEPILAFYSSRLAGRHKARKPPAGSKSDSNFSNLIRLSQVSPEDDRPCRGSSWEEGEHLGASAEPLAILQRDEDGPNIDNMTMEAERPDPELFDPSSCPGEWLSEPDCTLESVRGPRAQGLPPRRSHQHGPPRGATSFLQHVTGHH

FGFR3 (human) = FGFR3 (human) (UniProt P22607)
STK25 (human) = STK25 (human) (UniProt O00506)
STK17A (human) = STK17A (human) (UniProt Q9UEE5)
CAMK2D (human) = CAMK2D (human) (UniProt Q13557)
Chain of CAMK2D (human) (Q13557 whole entry, looked up): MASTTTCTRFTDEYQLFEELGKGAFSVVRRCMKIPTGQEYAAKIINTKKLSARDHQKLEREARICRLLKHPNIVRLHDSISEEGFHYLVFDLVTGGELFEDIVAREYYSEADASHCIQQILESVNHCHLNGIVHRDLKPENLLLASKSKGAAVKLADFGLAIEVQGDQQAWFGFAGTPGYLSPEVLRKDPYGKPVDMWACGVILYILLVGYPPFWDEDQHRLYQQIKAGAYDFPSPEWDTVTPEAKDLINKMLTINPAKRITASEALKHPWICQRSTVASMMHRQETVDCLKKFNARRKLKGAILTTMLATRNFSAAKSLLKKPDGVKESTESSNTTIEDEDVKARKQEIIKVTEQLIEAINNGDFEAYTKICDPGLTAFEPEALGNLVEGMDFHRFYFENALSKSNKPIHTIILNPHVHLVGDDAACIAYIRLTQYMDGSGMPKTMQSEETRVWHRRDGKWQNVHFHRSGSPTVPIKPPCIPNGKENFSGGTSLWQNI

DYRK1B (human) = DYRK1B (human) (UniProt Q9Y463)
SRC (human) = SRC (human) (UniProt P12931)
CDK6 CCND3 (human) = CDK6 CCND3 (human) (UniProt P30281+Q00534)
BRSK1 (human) = BRSK1 (human) (UniProt Q8TDC3)
CDK9 CCNK (human) = CDK9 CCNK (human) (UniProt O75909+P50750)
CSNK1A1 (human) = CSNK1A1 (human) (UniProt P48729)
EPHA4 (human) = EPHA4 (human) (UniProt P54764)
SGK3 (human) = SGK3 (human) (UniProt Q96BR1)
PRKCE (human) = PRKCE (human) (UniProt Q02156)
Chain of PRKCE (human) (Q02156 whole entry, looked up): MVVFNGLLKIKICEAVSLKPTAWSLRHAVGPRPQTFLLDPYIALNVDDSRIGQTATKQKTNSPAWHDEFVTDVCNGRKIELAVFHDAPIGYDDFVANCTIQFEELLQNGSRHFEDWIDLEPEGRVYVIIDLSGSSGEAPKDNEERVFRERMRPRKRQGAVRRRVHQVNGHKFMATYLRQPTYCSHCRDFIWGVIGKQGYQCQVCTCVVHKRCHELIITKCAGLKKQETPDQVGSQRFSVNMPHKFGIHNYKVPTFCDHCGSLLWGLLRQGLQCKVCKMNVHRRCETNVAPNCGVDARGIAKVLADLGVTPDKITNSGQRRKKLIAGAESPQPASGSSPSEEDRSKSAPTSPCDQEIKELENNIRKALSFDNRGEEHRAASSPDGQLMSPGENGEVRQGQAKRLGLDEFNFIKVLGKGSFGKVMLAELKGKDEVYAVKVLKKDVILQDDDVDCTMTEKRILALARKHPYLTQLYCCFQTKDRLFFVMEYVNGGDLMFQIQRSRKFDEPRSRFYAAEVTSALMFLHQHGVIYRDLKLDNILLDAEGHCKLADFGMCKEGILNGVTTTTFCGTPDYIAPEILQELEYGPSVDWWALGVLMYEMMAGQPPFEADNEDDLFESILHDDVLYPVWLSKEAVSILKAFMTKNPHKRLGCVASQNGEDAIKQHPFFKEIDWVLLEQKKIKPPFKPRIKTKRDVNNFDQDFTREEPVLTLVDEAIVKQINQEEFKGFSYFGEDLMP

MAP3K7 TAB1 (human) = MAP3K7 TAB1 (human) (UniProt O43318+Q15750)
BRSK2 (human) = BRSK2 (human) (UniProt Q8IWQ3)
MAPKAPK2 (human) = MAPKAPK2 (human) (UniProt P49137)
CSF1R (human) = CSF1R (human) (UniProt P07333)
MAPK11 (human) = MAPK11 (human) (UniProt Q15759)
CAMK1D (human) = CAMK1D (human) (UniProt Q8IU85)
RPS6KA2 KD1 KD2 (human) = RPS6KA2 KD1 KD2 (human) (UniProt Q15349)
DYRK3 (human) = DYRK3 (human) (UniProt O43781)
GRK5 (human) = GRK5 (human) (UniProt P34947)
RPS6KA3 KD1 KD2 (human) = RPS6KA3 KD1 KD2 (human) (UniProt P51812)
STK24 (human) = STK24 (human) (UniProt Q9Y6E0)
NTRK3 (human) = NTRK3 (human) (UniProt Q16288)
HIPK1 (human) = HIPK1 (human) (UniProt Q86Z02)
Chain of HIPK1 (human) (Q86Z02 whole entry, looked up): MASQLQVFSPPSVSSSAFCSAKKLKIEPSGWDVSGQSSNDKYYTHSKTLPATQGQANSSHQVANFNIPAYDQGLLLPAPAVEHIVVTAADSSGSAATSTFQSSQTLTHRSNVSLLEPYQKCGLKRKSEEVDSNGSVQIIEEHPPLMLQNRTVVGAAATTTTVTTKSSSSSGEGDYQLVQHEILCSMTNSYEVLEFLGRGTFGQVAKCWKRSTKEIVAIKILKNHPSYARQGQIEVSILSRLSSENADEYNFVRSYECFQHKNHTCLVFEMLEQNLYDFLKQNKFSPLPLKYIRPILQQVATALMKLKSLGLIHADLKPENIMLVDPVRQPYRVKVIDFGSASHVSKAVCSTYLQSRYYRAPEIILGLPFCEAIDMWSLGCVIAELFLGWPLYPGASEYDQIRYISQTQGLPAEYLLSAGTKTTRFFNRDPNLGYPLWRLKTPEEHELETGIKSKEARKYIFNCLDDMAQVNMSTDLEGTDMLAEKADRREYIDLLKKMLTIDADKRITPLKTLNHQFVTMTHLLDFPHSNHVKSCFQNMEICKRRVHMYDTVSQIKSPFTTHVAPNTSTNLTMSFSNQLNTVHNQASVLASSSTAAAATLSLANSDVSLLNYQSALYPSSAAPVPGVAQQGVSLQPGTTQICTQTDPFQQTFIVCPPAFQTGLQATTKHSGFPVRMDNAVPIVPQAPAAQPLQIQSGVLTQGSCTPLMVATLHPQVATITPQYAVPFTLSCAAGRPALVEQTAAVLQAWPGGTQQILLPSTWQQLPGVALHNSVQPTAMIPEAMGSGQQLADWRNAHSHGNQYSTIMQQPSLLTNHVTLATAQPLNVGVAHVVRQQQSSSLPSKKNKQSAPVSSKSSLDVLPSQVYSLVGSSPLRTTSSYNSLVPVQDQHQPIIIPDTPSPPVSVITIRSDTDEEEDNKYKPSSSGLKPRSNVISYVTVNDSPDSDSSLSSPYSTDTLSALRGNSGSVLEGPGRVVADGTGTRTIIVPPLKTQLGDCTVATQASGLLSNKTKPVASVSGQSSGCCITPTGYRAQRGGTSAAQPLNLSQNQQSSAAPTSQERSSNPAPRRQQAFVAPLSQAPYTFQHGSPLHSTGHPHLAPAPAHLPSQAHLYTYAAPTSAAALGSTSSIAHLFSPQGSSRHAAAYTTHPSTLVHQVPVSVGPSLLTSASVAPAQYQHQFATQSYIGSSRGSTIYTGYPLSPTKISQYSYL

CLK1 (human) = CLK1 (human) (UniProt P49759)
MAP3K14 (human) = MAP3K14 (human) (UniProt Q99558)
CAMK2B (human) = CAMK2B (human) (UniProt Q13554)
SLK (human) = SLK (human) (UniProt Q9H2G2)
ACVRL1 (human) = ACVRL1 (human) (UniProt P37023)
CSNK1G3 (human) = CSNK1G3 (human) (UniProt Q9Y6M4)
Chain of CSNK1G3 (human) (Q9Y6M4 whole entry, looked up): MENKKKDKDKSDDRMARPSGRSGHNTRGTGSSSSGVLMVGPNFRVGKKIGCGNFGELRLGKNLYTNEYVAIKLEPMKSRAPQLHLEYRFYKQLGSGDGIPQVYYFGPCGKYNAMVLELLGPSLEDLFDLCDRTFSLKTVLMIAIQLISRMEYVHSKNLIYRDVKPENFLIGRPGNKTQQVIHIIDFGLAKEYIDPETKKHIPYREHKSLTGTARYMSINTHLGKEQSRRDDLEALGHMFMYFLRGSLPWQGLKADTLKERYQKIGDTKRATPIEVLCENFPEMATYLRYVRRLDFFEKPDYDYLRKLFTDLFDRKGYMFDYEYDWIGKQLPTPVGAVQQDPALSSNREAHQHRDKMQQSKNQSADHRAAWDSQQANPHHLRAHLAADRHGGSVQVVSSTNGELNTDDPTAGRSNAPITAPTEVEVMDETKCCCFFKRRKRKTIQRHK

NLK (human) = NLK (human) (UniProt Q9UBE8)
Chain of NLK (human) (Q9UBE8 whole entry, looked up): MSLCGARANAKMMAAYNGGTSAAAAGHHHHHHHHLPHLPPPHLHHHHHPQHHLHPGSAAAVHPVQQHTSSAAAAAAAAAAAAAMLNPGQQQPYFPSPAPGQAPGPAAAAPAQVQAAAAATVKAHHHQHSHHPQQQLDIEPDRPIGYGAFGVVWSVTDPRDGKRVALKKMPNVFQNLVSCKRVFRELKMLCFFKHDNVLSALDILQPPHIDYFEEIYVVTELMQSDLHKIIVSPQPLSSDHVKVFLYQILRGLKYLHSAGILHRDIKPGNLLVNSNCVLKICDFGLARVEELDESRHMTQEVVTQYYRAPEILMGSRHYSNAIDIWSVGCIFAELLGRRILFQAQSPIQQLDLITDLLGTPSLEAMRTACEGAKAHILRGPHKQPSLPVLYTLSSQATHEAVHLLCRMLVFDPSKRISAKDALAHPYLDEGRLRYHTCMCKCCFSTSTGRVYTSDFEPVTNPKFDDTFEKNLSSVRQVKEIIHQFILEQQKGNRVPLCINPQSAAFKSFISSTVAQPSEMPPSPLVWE

CDK6 CCND1 (human) = CDK6 CCND1 (human) (UniProt Q00534+P24385)

Chain of TTK (human) (P33981 whole entry, looked up): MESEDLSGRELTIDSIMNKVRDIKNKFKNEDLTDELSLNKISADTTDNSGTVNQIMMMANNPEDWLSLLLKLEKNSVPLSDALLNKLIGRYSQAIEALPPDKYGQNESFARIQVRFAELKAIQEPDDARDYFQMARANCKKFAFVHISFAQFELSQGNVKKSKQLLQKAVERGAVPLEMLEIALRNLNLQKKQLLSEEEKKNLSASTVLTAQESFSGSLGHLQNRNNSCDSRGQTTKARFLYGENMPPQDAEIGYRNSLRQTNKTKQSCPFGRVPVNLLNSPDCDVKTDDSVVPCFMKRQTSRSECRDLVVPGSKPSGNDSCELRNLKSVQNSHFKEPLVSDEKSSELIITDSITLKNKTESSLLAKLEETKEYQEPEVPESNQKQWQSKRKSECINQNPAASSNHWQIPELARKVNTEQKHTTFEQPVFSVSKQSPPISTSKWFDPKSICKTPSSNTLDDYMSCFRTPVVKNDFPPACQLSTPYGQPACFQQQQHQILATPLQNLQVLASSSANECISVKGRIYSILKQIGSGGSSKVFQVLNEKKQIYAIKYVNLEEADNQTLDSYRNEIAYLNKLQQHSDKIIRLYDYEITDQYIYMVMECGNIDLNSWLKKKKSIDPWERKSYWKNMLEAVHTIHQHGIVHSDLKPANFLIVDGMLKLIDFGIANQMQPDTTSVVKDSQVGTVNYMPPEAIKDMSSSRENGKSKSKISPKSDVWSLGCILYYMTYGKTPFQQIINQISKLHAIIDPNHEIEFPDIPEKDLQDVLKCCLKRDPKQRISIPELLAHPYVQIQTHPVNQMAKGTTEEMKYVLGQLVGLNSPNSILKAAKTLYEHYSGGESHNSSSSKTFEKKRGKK

Question: Which residual activity (ERBB2 (human)) does the source give for O=C(c1ccccc1)c1ccc(N2CCOCC2)cc1O here?
Answer: Its residual activity is 94.8%.

Question: What about the residual activity (MAP3K2 (human)) of the same molecule?
Answer: The residual activity was 102%.

Question: And the residual activity (MST4 (human))?
Answer: Its residual activity is 101%.

Question: What about the residual activity (TYRO3 (human)) of the same molecule?
Answer: The residual activity was 101%.

Question: And the residual activity (TTK (human))?
Answer: Its residual activity is 104%.

Question: And the residual activity (YES1 (human))?
Answer: Its residual activity is 103%.

Question: And the residual activity (HIPK4 (human))?
Answer: Its residual activity is 99.5%.

Question: And the residual activity (FGFR3 (human))?
Answer: Its residual activity is 104%.

Question: And the residual activity (STK25 (human))?
Answer: The residual activity was 100%.

Question: And the residual activity (STK17A (human))?
Answer: The residual activity was 97.9%.

Question: And the residual activity (CAMK2D (human))?
Answer: Its residual activity is 95.1%.

Question: What about the residual activity (DYRK1B (human)) of the same molecule?
Answer: The residual activity was 105%.

Question: What about the residual activity (SRC (human)) of the same molecule?
Answer: Its residual activity is 97.8%.

Question: And the residual activity (CDK6 CCND3 (human))?
Answer: The residual activity was 97.7%.

Question: And the residual activity (BRSK1 (human))?
Answer: The residual activity was 103%.

Question: And the residual activity (CDK9 CCNK (human))?
Answer: Its residual activity is 97.8%.

Question: And the residual activity (CSNK1A1 (human))?
Answer: The residual activity was 110%.

Question: What about the residual activity (EPHA4 (human)) of the same molecule?
Answer: Its residual activity is 103%.

Question: And the residual activity (SGK3 (human))?
Answer: The residual activity was 105%.

Question: And the residual activity (PRKCE (human))?
Answer: The residual activity was 92.3%.

Question: And the residual activity (MAP3K7 TAB1 (human))?
Answer: Its residual activity is 101%.

Question: And the residual activity (BRSK2 (human))?
Answer: The residual activity was 95.5%.

Question: And the residual activity (MAPKAPK2 (human))?
Answer: The residual activity was 102%.

Question: What about the residual activity (CSF1R (human)) of the same molecule?
Answer: Its residual activity is 99.7%.

Question: And the residual activity (MAPK11 (human))?
Answer: Its residual activity is 99.3%.

Question: What about the residual activity (CAMK1D (human)) of the same molecule?
Answer: Its residual activity is 99.1%.

Question: And the residual activity (RPS6KA2 KD1 KD2 (human))?
Answer: The residual activity was 102%.

Question: What about the residual activity (DYRK3 (human)) of the same molecule?
Answer: The residual activity was 98.9%.

Question: What about the residual activity (GRK5 (human)) of the same molecule?
Answer: The residual activity was 105%.

Question: What about the residual activity (RPS6KA3 KD1 KD2 (human)) of the same molecule?
Answer: The residual activity was 104%.

Question: What about the residual activity (STK24 (human)) of the same molecule?
Answer: The residual activity was 89%.

Question: And the residual activity (NTRK3 (human))?
Answer: Its residual activity is 93.7%.

Question: What about the residual activity (HIPK1 (human)) of the same molecule?
Answer: Its residual activity is 104%.

Question: What about the residual activity (CLK1 (human)) of the same molecule?
Answer: Its residual activity is 108%.

Question: And the residual activity (MAP3K14 (human))?
Answer: The residual activity was 75.1%.

Question: And the residual activity (CAMK2B (human))?
Answer: Its residual activity is 105%.

Question: What about the residual activity (SLK (human)) of the same molecule?
Answer: The residual activity was 106%.

Question: And the residual activity (ACVRL1 (human))?
Answer: The residual activity was 105%.

Question: What about the residual activity (CSNK1G3 (human)) of the same molecule?
Answer: The residual activity was 98.8%.

Question: And the residual activity (NLK (human))?
Answer: The residual activity was 97.3%.

Question: And the residual activity (CDK6 CCND1 (human))?
Answer: Its residual activity is 97.8%.

Question: Which results are given for CCCCc1c(-c2ccc(O)cc2)[nH]c2nccnc12?
Answer: residual activity (ERBB2 (human)): 97.7%; residual activity (MAP3K2 (human)): 77.2%; residual activity (MST4 (human)): 79.1%; residual activity (TYRO3 (human)): 99.6%; residual activity (TTK (human)): 91.6%; residual activity (YES1 (human)): 46.5%; residual activity (HIPK4 (human)): 108%; residual activity (FGFR3 (human)): 80%; residual activity (STK25 (human)): 91.4%; residual activity (STK17A (human)): 84.9%; residual activity (CAMK2D (human)): 87.3%; residual activity (DYRK1B (human)): 73.3%; residual activity (SRC (human)): 65.2%; residual activity (CDK6 CCND3 (human)): 84.6%; residual activity (BRSK1 (human)): 89.1%; residual activity (CDK9 CCNK (human)): 42.8%; residual activity (CSNK1A1 (human)): 92.9%; residual activity (EPHA4 (human)): 87.5%; residual activity (SGK3 (human)): 95.3%; residual activity (PRKCE (human)): 107%; residual activity (MAP3K7 TAB1 (human)): 80.3%; residual activity (BRSK2 (human)): 87.2%; residual activity (MAPKAPK2 (human)): 92.6%; residual activity (CSF1R (human)): 38.4%; residual activity (MAPK11 (human)): 103%; residual activity (CAMK1D (human)): 96.9%; residual activity (RPS6KA2 KD1 KD2 (human)): 87.7%; residual activity (DYRK3 (human)): 90.9%; residual activity (GRK5 (human)): 104%; residual activity (RPS6KA3 KD1 KD2 (human)): 90.8%; residual activity (STK24 (human)): 83.6%; residual activity (NTRK3 (human)): 76.1%; residual activity (HIPK1 (human)): 97.6%; residual activity (CLK1 (human)): 97.9%; residual activity (MAP3K14 (human)): 95.4%; residual activity (CAMK2B (human)): 97%; residual activity (SLK (human)): 77.3%; residual activity (ACVRL1 (human)): 76.2%; residual activity (CSNK1G3 (human)): 82.3%; residual activity (NLK (human)): 90.3%; residual activity (CDK6 CCND1 (human)): 61.6%
